The target of assay [1] is Guanine nucleotide-binding protein G(I)/G(S)/G(T) subunit beta-1/gamma-2 (Homo sapiens, UniProt P59768+P62873). Nature of the assay: Inhibition of G-protein beta1gamma2 (unknown origin) by flow cytometry. Format: protein-complex assay. (Flow cytometry measures light scatter and fluorescence of single cells or particles in a stream.)
Assay [2] is described as follows: Inhibition of recombinant G-alpha subunit (unknown origin) assessed as inhibition of GDP release. Also noted: species or system Homo sapiens.
The target of assay [3] is T1, GNAQ/GNA11 (Homo sapiens, UniProt P50148+P29992).
T1 sequence (P50148 whole entry): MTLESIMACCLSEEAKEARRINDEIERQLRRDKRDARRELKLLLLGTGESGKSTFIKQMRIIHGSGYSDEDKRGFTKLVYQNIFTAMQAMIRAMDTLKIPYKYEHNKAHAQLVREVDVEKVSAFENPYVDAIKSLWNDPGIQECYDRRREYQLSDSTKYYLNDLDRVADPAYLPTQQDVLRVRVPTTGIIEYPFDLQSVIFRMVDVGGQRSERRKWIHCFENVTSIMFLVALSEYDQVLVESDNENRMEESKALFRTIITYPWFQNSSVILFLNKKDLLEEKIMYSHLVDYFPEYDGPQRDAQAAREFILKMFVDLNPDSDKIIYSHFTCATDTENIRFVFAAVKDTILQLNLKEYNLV
T1 sequence (P29992 whole entry): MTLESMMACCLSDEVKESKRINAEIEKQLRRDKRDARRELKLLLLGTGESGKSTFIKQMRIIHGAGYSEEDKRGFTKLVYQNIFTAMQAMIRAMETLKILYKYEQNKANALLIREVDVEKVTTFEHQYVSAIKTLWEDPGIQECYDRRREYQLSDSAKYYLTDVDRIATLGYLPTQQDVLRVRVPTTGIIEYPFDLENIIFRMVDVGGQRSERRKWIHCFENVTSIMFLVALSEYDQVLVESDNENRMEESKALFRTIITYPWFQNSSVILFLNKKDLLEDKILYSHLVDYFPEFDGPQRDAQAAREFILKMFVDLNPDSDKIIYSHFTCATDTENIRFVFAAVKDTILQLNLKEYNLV
Nature of the assay: Inhibition of G-alphaq/11 in human platelet rich plasma assessed as inhibition of ADP-mediated calcium ion mobilization.

The target of assay [4] is T1, GNAQ/GNA11. Description: Inhibition of G-alphaq/11 in human platelet rich plasma assessed as inhibition of ADP-mediated platelet aggregation.

pIC50: −log10 of the molar value. Bridge positions count the residues as written; N and C are the ends. Square brackets hold non-standard residues; d marks the D form. Peptide text beside a SMILES is read from it. Leu(3R-O(AcLeu(3R-OH))) = CC(=O)N[C@H](C(=O)O[C@H](C(C)C)[C@H](N)C(=O)O)[C@H](O)C(C)C; NMeT = CN[C@H](C(=O)O)[C@@H](C)O; dPhLac = O=C(O)[C@H](O)Cc1ccccc1; NMeA = CN[C@@H](C)C(=O)O; NMeDha = C=C(NC)C(=O)O

Sequence of Guanine nucleotide-binding protein G(I)/G(S)/G(T) subunit beta-1/gamma-2 (P59768 2-71 limits assumed): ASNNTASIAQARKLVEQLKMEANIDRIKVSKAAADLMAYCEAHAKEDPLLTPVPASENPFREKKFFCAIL
Sequence of Guanine nucleotide-binding protein G(I)/G(S)/G(T) subunit beta-1/gamma-2 (P62873 2-340 limits assumed): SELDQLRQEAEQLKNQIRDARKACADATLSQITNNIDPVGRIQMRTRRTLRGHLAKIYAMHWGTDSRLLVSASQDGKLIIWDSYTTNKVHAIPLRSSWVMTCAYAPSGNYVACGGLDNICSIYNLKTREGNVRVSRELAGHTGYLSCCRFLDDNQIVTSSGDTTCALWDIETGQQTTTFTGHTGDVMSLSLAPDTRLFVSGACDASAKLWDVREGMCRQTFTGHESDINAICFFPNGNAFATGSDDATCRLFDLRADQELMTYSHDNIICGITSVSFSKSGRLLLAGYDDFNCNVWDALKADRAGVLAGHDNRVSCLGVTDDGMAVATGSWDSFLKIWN

As usually defined, the pIC50 is −log10 of the IC50, conventionally taken in molar units. With `O=C(O)C1CCCCC1c1c2ccc(=O)cc-2oc2cc(O)ccc12` (configuration not stated), the pIC50 in assay [1] was below 3.52. In assay [1], `O=C(O)C1CC23C(Cl)C(Cl)=C(Cl)C(Cl)C2(CC1c1c2ccc(=O)c(O)c-2oc2c(O)c(O)ccc12)C3(Cl)Cl` (configuration not stated) showed a pIC50 of 6.60. With `Cc1ccc(C(=O)Nc2ccc(S(=O)(=O)O)c3cc(S(=O)(=O)O)cc(S(=O)(=O)O)c23)cc1NC(=O)c1cccc(NC(=O)Nc2cccc(C(=O)Nc3cc(C(=O)Nc4ccc(S(=O)(=O)O)c5cc(S(=O)(=O)O)cc(S(=O)(=O)O)c45)ccc3C)c2)c1` [SURAMIN], the pIC50 in assay [2] was 6.62. For the compound `O=C1OC2(c3ccccc31)c1ccc(O)c(O)c1Oc1c2ccc(O)c1O`, the pIC50 in assay [1] is 6.70.

Regarding `C=C1C(=O)N[C@@H](C)C(=O)N(C)[C@@H](C)C(=O)N[C@@H]([C@H](OC(=O)[C@@H](NC(C)=O)[C@H](O)C(C)C)C(C)C)C(=O)N(C)[C@@H]([C@@H](C)OC)C(=O)O[C@H](C)[C@H](NC(C)=O)C(=O)O[C@H](Cc2ccccc2)C(=O)N1C` (Ac-T[dPhLac][NMeDha]A[NMeA][Leu(3R-O(AcLeu(3R-OH)))][NMeT](Me); ester 1-C), the pIC50 in assay [3] and in assay [4] was 6.00 to 7.00 throughout. In turn, `O=C(O)C1CCCCC1c1c2ccc(=O)c(O)c-2oc2c(O)c(O)ccc12` (configuration not stated) had a negative logarithm of the IC50 (pIC50) in assay [1] of 6.70.

These data come from ChEMBL document CHEMBL4354836, “Heterotrimeric G Proteins as Therapeutic Targets in Drug Discovery” (J Med Chem, 2020).
